Common to all, as to format: biochemical
Assay [1] deals with JAK3 (Homo sapiens (Human), UniProt P52333). Description: JAK Caliper Enzyme Assay at 1 mM ATP, JAK3. In short, it runs like this:
(§1)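 Recombinant human kinase domains phosphorylate a fluorescent synthetic peptide at 1 mM ATP, room temperature, with enzyme and time tuned for 20-30% conversion; EDTA-stopped. Product/substrate separated by microfluidic mobility shift; percent effect versus DMSO and positive controls fitted to IC50 (nM).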

Assay [2] concerns the target TYK2 (Homo sapiens (Human), UniProt P29597). Description: JAK Caliper Enzyme Assay at 1 mM ATP, TYK2. The procedure, abridged:
(§2)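 Read-out is Caliper LabChip mobility-shift separation of phosphorylated from unphosphorylated fluorescent peptide after EDTA termination. Each JAK kinase domain (human, recombinant) runs at 1 mM ATP at room temperature, adjusted for 20–30% turnover. Inhibition is normalized to DMSO and positive-control wells and plotted against concentration.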

The target in assay [3] is JAK2 (Homo sapiens (Human), UniProt O60674). Description: JAK Caliper Enzyme Assay at 1 mM ATP, JAK2. The procedure, abridged: as §2
The target of assay [4] is JAK1 (Homo sapiens (Human), UniProt P23458). Description: JAK Caliper Enzyme Assay at 1 mM ATP, JAK1. In short, it runs like this: as §1

A value given as a limit tells only on which side of the number the result lay.

Sequence of JAK2 (O60674 849-1124): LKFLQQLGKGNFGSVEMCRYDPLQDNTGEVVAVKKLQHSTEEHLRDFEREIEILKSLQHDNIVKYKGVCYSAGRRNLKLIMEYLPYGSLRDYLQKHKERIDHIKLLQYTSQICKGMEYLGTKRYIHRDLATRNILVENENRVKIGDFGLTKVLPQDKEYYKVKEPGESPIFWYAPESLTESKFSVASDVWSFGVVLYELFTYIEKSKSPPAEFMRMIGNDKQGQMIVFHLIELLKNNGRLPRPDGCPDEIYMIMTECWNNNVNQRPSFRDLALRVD
Sequence of TYK2 (P29597 897-1176): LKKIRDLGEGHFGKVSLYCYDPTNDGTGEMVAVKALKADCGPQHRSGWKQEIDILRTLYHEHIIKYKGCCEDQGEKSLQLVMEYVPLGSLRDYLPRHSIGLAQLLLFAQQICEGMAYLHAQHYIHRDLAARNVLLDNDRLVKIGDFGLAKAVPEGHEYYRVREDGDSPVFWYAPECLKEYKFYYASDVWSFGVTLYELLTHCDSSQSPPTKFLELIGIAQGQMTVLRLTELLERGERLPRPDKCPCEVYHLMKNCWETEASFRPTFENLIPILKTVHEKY
Sequence of JAK1 (P23458 875-1153): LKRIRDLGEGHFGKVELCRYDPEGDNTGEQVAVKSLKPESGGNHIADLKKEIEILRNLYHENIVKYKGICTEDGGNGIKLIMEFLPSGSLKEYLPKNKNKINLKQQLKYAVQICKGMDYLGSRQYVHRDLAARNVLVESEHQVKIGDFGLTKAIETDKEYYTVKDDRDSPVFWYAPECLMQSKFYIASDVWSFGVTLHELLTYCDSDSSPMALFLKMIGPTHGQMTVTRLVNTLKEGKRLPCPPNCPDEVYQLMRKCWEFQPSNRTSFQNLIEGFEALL
Sequence of JAK3 (P52333 822-1111): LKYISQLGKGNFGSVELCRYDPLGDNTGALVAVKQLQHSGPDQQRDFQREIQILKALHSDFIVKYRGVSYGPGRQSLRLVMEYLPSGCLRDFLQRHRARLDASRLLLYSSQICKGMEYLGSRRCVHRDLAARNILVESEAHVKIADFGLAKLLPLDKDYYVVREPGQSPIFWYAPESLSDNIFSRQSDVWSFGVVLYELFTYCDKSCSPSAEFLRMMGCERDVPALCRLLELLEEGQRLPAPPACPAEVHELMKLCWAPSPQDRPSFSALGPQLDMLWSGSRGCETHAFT

In the case of `N#CC[C@]1(n2ncc(-c3cc(-c4ccc(F)cn4)cc4ncccc34)n2)C[C@@H](C#N)C1` [Example 347, cis-3-(cyanomethyl)-3-{4-[7-(5-fluoropyridin-2-yl)quinolin-5-yl]-2H-1,2,3-triazol-2-yl}cyclobutanecarbonitrile], the IC50 in assay [1] is over 10 µM; in assay [2], 0.026 µM; in assay [3], 0.114 µM; in assay [4] it was 1.2 µM.

On to `N#CCC1(n2ncc(-c3cc(-c4ccc(F)cn4)cc4ncccc34)n2)CC(C#N)C1` (stereo not drawn) [Example 348, trans-3-(cyanomethyl)-3-{4-[7-(5-fluoropyridin-2-yl)quinolin-5-yl]-2H-1,2,3-triazol-2-yl}cyclobutanecarbonitrile], for which the IC50 in assay [1] is over 10 µM; in assay [2], 0.143 µM; in assay [3], 0.876 µM; in assay [4], over 10 µM.

`N#CCC1(n2ncc(-c3cc(-c4ccc(C(N)=O)cn4)cc4ncccc34)n2)CC(C#N)C1` (stereo not drawn) [Example 351, 6-(5-{2-[trans-3-cyano-1-(cyanomethyl)cyclobutyl]-2H-1,2,3-triazol-4-yl}quinolin-7-yl)pyridine-3-carboxamide]: the 50% inhibitory concentration (IC50) in assay [1] is over 10 µM; in assay [2], 0.131 µM; in assay [3], 0.688 µM; in assay [4], over 10 µM.

As to `N#CCC1(n2ncc(-c3cc(-c4ccc(C(N)=O)cn4)cc4ncccc34)n2)CC(C#N)C1` (stereo not drawn) [Example 352, 6-(5-{2-[cis-3-cyano-1-(cyanomethyl)cyclobutyl]-2H-1,2,3-triazol-4-yl}quinolin-7-yl)pyridine-3-carboxamide], the IC50 in assay [1] is over 10 µM; in assay [2], 0.027 µM; in assay [3] it was 0.106 µM; in assay [4], 0.825 µM.

Consider `N#CCC1(n2ncc(-c3cc(-c4cc(C(N)=O)ccn4)cc4ncccc34)n2)CC(C#N)C1` (stereo not drawn) [Example 353, 2-(5-{2-[cis-3-cyano-1-(cyanomethyl)cyclobutyl]-2H-1,2,3-triazol-4-yl}quinolin-7-yl)pyridine-4-carboxamide], for which the half-maximal inhibitory concentration (IC50) in assay [1] is over 10 µM; in assay [2], 1.57 µM; in assay [3], over 10 µM; in assay [4], 9.63 µM.

Regarding `N#CC[C@]1(n2ncc(-c3cc(-c4cc(C(N)=O)ccn4)cc4ncccc34)n2)C[C@@H](C#N)C1` [Example 354, 2-(5-{2-[trans-3-cyano-1-(cyanomethyl)cyclobutyl]-2H-1,2,3-triazol-4-yl}quinolin-7-yl)pyridine-4-carboxamide], the half-inhibitory concentration (IC50) is over 10 µM in assay [1], 7.25 µM in assay [2], over 10 µM in assay [3] and over 10 µM in assay [4].

Consider `Cc1ccc(-c2cc(-c3cnn(C4(CC#N)CN(S(C)(=O)=O)C4)n3)c3cccnc3c2)cn1` [Example 355, [3-{4-[7-(6-methylpyridin-3-yl)quinolin-5-yl]-2H-1,2,3-triazol-2-yl}-1-(methylsulfonyl)azetidin-3-yl]acetonitrile], for which the IC50 is over 10 µM in assay [1], 0.137 µM in assay [2], 1.58 µM in assay [3] and over 10 µM in assay [4].

Turning to `Cc1cc(-c2cc(-c3cnn(C4(CC#N)CN(S(C)(=O)=O)C4)n3)c3cccnc3c2)ccn1` [Example 356, [3-{4-[7-(2-methylpyridin-4-yl)quinolin-5-yl]-2H-1,2,3-triazol-2-yl}-1-(methylsulfonyl)azetidin-3-yl]acetonitrile], the half-inhibitory concentration (IC50) was over 10 µM in assay [1], 0.13 µM in assay [2], 0.973 µM in assay [3] and over 10 µM in assay [4].

As for `N#CC[C@]1(n2ncc(-c3cc(-c4cccc(N)n4)cc4ncccc34)n2)C[C@H](C#N)C1` [Example 357, trans-3-{4-[7-(6-aminopyridin-2-yl)quinolin-5-yl]-2H-1,2,3-triazol-2-yl}-3-(cyanomethyl)cyclobutanecarbonitrile], the IC50 in assay [1] is over 10 µM; in assay [2], 0.099 µM; in assay [3] it was 0.67 µM; in assay [4], 2.58 µM.

Consider `N#CC[C@]1(n2ncc(-c3cc(-c4cccc(N)n4)cc4ncccc34)n2)C[C@@H](C#N)C1` [Example 358, cis-3-{4-[7-(6-aminopyridin-2-yl)quinolin-5-yl]-2H-1,2,3-triazol-2-yl}-3-(cyanomethyl)cyclobutanecarbonitrile], for which the IC50 was 3.76 µM in assay [1], 0.02 µM in assay [2], 0.092 µM in assay [3] and 0.404 µM in assay [4].

Turning to `N#CC[C@]1(n2ncc(-c3cc(-c4ccc(N)cn4)cc4ncccc34)n2)C[C@@H](C#N)C1` [Example 359, cis-3-{4-[7-(5-aminopyridin-2-yl)quinolin-5-yl]-2H-1,2,3-triazol-2-yl}-3-(cyanomethyl)cyclobutanecarbonitrile], the 50% inhibitory concentration (IC50) in assay [1] came to 6.7 µM; in assay [2], 0.013 µM; in assay [3], 0.069 µM; in assay [4] it was 0.321 µM.

Regarding `N#CC[C@]1(n2ncc(-c3cc(-c4ccc(N)cn4)cc4ncccc34)n2)C[C@H](C#N)C1` [Example 360, trans-3-{4-[7-(5-aminopyridin-2-yl)quinolin-5-yl]-2H-1,2,3-triazol-2-yl}-3-(cyanomethyl)cyclobutanecarbonitrile], the IC50 in assay [1] was over 10 µM; in assay [2], 0.04 µM; in assay [3] it was 0.354 µM; in assay [4], 1.72 µM.

Turning to `CS(=O)(=O)N1CC(CC#N)(n2ncc(-c3cc(-c4cccnc4N)cc4ncccc34)n2)C1` [Example 361, [3-{4-[7-(2-aminopyridin-3-yl)quinolin-5-yl]-2H-1,2,3-triazol-2-yl}-1-(methylsulfonyl)azetidin-3-yl]acetonitrile], the IC50 in assay [1] was over 10 µM; in assay [2], 3.63 µM; in assay [3], over 10 µM; in assay [4], over 10 µM.

Turning to `N#CC[C@]1(n2ncc(-c3cc(-c4cccnc4N)cc4ncccc34)n2)C[C@@H](C#N)C1` [Example 362, cis-3-{4-[7-(2-aminopyridin-3-yl)quinolin-5-yl]-2H-1,2,3-triazol-2-yl}-3-(cyanomethyl)cyclobutanecarbonitrile], the IC50 in assay [1] was over 10 µM; in assay [2], 1.96 µM; in assay [3] it was over 10 µM; in assay [4], over 10 µM.

In the case of `N#CC[C@]1(n2ncc(-c3cc(-c4cccnc4N)cc4ncccc34)n2)C[C@H](C#N)C1` [Example 363, trans-3-{4-[7-(2-aminopyridin-3-yl)quinolin-5-yl]-2H-1,2,3-triazol-2-yl}-3-(cyanomethyl)cyclobutanecarbonitrile], the IC50 is over 10 µM in assay [1], 6.84 µM in assay [2], over 10 µM in assay [3] and over 10 µM in assay [4].

As to `CS(=O)(=O)N1CC(CC#N)(n2ncc(-c3cc(-c4ccc(N)nc4)cc4ncccc34)n2)C1` [Example 364, [3-{4-[7-(6-aminopyridin-3-yl)quinolin-5-yl]-2H-1,2,3-triazol-2-yl}-1-(methylsulfonyl)azetidin-3-yl]acetonitrile], the IC50 in assay [1] was over 10 µM; in assay [2], 0.067 µM; in assay [3] it was 0.834 µM; in assay [4], 2.96 µM.

In the case of `N#CC[C@]1(n2ncc(-c3cc(-c4ccc(N)nc4)cc4ncccc34)n2)C[C@H](C#N)C1` [Example 365, trans-3-{4-[7-(6-aminopyridin-3-yl)quinolin-5-yl]-2H-1,2,3-triazol-2-yl}-3-(cyanomethyl)cyclobutanecarbonitrile], the IC50 in assay [1] was over 10 µM; in assay [2], 0.103 µM; in assay [3], 0.938 µM; in assay [4], 2.66 µM.

The values above are taken from patent US11254668B2, “Pyrazolo[1,5-A]pyrazin-4-yl and related derivatives” (Pfizer Inc., priority 2017, dated 2022).
